Patent US20250163104A1, “MACROCYCLIC IMMUNOMODULATORS” (priority 2021, published 2025)
Where a SMILES comes first, the peptide text is derived from it. Bridges are numbered along the chain shown (N, C = ends). [ ]: non-standard residue; d: D form. The star is where a group is joined. Phe(4-COOH) = N[C@@H](Cc1ccc(C(=O)O)cc1)C(=O)O; Bip = N[C@@H](Cc1ccc(-c2ccccc2)cc1)C(=O)O; aIle = CC[C@@H](C)[C@H](N)C(=O)O; 4Pal = N[C@@H](Cc1ccncc1)C(=O)O; Cha = N[C@@H](CC1CCCCC1)C(=O)O; dCha = N[C@H](CC1CCCCC1)C(=O)O; Carboxymethyl = O=C(O)C*; Orn = NCCC[C@H](N)C(=O)O; Dab = NCC[C@H](N)C(=O)O

Target: T1, human PD-1 / PD-L1-Ig binding on Jurkat cell line over-expressing human PD-1 (Jurkat-PD-1) (Homo sapiens, UniProt Q15116)
T1 construct: expressed in transfected cells; host or cells: Jurkat
T1 sequence (Q15116 25-288): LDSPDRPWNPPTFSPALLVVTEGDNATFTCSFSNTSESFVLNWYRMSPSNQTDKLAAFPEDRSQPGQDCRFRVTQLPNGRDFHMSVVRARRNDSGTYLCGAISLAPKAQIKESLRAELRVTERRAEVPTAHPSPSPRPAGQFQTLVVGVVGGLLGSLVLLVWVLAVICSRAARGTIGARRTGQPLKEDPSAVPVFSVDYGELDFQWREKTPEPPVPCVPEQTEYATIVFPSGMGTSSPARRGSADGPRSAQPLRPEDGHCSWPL
Assay: Jurkat-PD-1 Cell Binding High-Content Screening Assay (CBA)
Type: cell-based
Conditions: Jurkat HPD1_PDL1 IC50, Jurkat-PD-1 cells, PE-labeled PD-L1-Ig 20 nM final
How it was run: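 Jurkat-hPD-1 cells in DMEM with 10% fetal calf serum receive test compound and are held at 37° C for 2 h. PE-labeled PD-L1-Ig is added at 20 nM final and left for 1 hour. Cells are then fixed and Hoechst-stained, and binding is measured by imaging.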

Row | SMILES | IC50 [µM]
1 | CC(C)C[C@H]1NC(=O)[C@H](CCCN)NC(=O)[C@H](CCC(=O)O)NC(=O)[C@H](Cc2ccc(-c3ccccc3)cc2)NC(=O)[C@H](C(C)C)NC(=O)[C@H](Cc2c[nH]c3ccccc23)NC(=O)[C@H](CC(=O)O)NC(=O)[C@H](Cc2ccc(OCC(=O)O)cc2)NC(=O)[C@H](Cc2ccncc2)NC(=O)CSC[C@@H](C(=O)N[C@@H](C)C(N)=O)NC(=O)[C@H]([C@@H](C)O)NC(=O)[C@H](C(C)C)NC(=O)[C@H](CC2CCCCC2)NC(=O)[C@H](Cc2c[nH]cn2)NC1=O [Compound 1609] | 0.0153
2 | CC(C)C[C@H]1NC(=O)[C@H](CCCN)NC(=O)[C@H](CCCNC(N)=O)NC(=O)[C@H](Cc2ccc(-c3ccccc3)cc2)NC(=O)[C@H](C(C)C)NC(=O)[C@H](Cc2c[nH]c3ccccc23)NC(=O)[C@H](CC(=O)O)NC(=O)[C@H](Cc2ccc(OCC(=O)O)cc2)NC(=O)[C@H](Cc2ccncc2)NC(=O)CSC[C@@H](C(=O)N[C@@H](C)C(N)=O)NC(=O)[C@H]([C@@H](C)O)NC(=O)[C@H](C(C)C)NC(=O)[C@H](CC2CCCCC2)NC(=O)[C@H](Cc2c[nH]cn2)NC1=O [Compound 1610] | 0.0215

Same assay, conditions: Jurkat-PD-1 cells, PE-labeled PD-L1-Ig 20 nM final; read-out: Jurkat HPD1_PDL1 IC50

Row | SMILES | IC50 [µM]
3 | CC[C@H](C)[C@@H]1NC(=O)[C@H](Cc2ccc(-c3ccccc3)cc2)NC(=O)[C@H](C(C)C)NC(=O)[C@H](Cc2c[nH]c3ccccc23)NC(=O)[C@H](CC(=O)O)NC(=O)[C@H](Cc2ccc(OCC(=O)O)cc2)NC(=O)[C@H](Cc2ccncc2)NC(=O)CSC[C@@H](C(=O)N[C@@H](C)C(N)=O)NC(=O)[C@H]([C@@H](C)O)NC(=O)[C@H](C(C)C)NC(=O)[C@H](CC2CCCCC2)NC(=O)[C@H](Cc2cnc[nH]2)NC(=O)[C@@H](CC(C)C)NC(=O)[C@H](CCCN)NC1=O [Compound 1608] | 0.0322
4 | CC(C)C[C@H]1NC(=O)[C@H](CCCN)NC(=O)[C@H](C(C)C)NC(=O)[C@H](Cc2ccc(-c3ccccc3)cc2)NC(=O)[C@H](C(C)C)NC(=O)[C@H](Cc2c[nH]c3ccccc23)NC(=O)[C@H](CC(=O)O)NC(=O)[C@H](Cc2ccncc2)NC(=O)[C@H](CN)NC(=O)CSC[C@@H](C(=O)N[C@@H](C)C(N)=O)NC(=O)[C@H]([C@@H](C)O)NC(=O)[C@H](C(C)C)NC(=O)[C@H](CC2CCCCC2)NC(=O)[C@H](Cc2cnc[nH]2)NC1=O [Compound 1611] | 0.0096
5 | CCCC[C@@H]1NC(=O)[C@H](Cc2ccc(-c3ccccc3)cc2)NC(=O)[C@H](C(C)C)NC(=O)[C@H](Cc2cccc(C)c2)NC(=O)[C@H](CC(=O)O)NC(=O)[C@H](Cc2ccc(C(=O)O)cc2)NC(=O)[C@H](Cc2ccncc2)NC(=O)CSC[C@@H](C(=O)N[C@@H](C)C(N)=O)NC(=O)[C@H]([C@@H](C)O)NC(=O)[C@H](C(C)C)NC(=O)[C@H](CC2CCCCC2)NC(=O)[C@H](CCN)NC(=O)[C@@H](CC(C)C)NC(=O)[C@H](CCCN)NC1=O [Compound 1613] | 0.0207
6 | Cc1cccc(C[C@@H]2NC(=O)[C@H](CC(=O)O)NC(=O)[C@H](Cc3ccc(C(=O)O)cc3)NC(=O)[C@H](Cc3ccncc3)NC(=O)CSC[C@@H](C(=O)N[C@@H](C)C(N)=O)NC(=O)[C@H]([C@@H](C)O)NC(=O)[C@H](C(C)C)NC(=O)[C@H](CC3CCCCC3)NC(=O)[C@H](CCN)NC(=O)[C@@H](CC(C)C)NC(=O)[C@H](CCCN)NC(=O)[C@H](C3CCCCC3)NC(=O)[C@H](Cc3ccc(-c4ccccc4)cc3)NC(=O)[C@H](C(C)C)NC2=O)c1 [Compound 1614] | 0.0144
7 | CCC[C@@H]1NC(=O)[C@H](Cc2ccc(-c3ccccc3)cc2)NC(=O)[C@H](C(C)C)NC(=O)[C@H](Cc2cccc(C)c2)NC(=O)[C@H](CC(=O)O)NC(=O)[C@H](Cc2ccc(C(=O)O)cc2)NC(=O)[C@H](Cc2ccncc2)NC(=O)CSC[C@@H](C(=O)N[C@@H](C)C(N)=O)NC(=O)[C@H]([C@@H](C)O)NC(=O)[C@H](C(C)C)NC(=O)[C@H](CC2CCCCC2)NC(=O)[C@H](CCN)NC(=O)[C@@H](CC(C)C)NC(=O)[C@H](CCCN)NC1=O [Compound 1615] | 0.0159
8 | Cc1cccc(C[C@@H]2NC(=O)[C@H](CC(=O)O)NC(=O)[C@H](Cc3ccc(C(=O)O)cc3)NC(=O)[C@H](Cc3ccncc3)NC(=O)CSC[C@@H](C(=O)N[C@@H](C)C(N)=O)NC(=O)[C@H]([C@@H](C)O)NC(=O)[C@H](C(C)C)NC(=O)[C@H](CC3CCCCC3)NC(=O)[C@H](CCN)NC(=O)[C@@H](CC(C)C)NC(=O)[C@H](CCCN)NC(=O)[C@H](c3ccccc3)NC(=O)[C@H](Cc3ccc(-c4ccccc4)cc3)NC(=O)[C@H](C(C)C)NC2=O)c1 [Compound 1616] | 0.0093
9 | Cc1cccc(C[C@@H]2NC(=O)[C@H](CC(=O)O)NC(=O)[C@H](Cc3ccc(C(=O)O)cc3)NC(=O)[C@H](Cc3ccncc3)NC(=O)CSC[C@@H](C(=O)N[C@@H](C)C(N)=O)NC(=O)[C@H]([C@@H](C)O)NC(=O)[C@H](C(C)C)NC(=O)[C@H](CC3CCCCC3)NC(=O)[C@H](CCN)NC(=O)[C@@H](CC(C)C)NC(=O)[C@H](CCCN)NC(=O)[C@H](C3CC3)NC(=O)[C@H](Cc3ccc(-c4ccccc4)cc3)NC(=O)[C@H](C(C)C)NC2=O)c1 [Compound 1617] | 0.0085
10 | Cc1cccc(C[C@@H]2NC(=O)[C@H](CC(=O)O)NC(=O)[C@H](Cc3ccc(C(=O)O)cc3)NC(=O)[C@H](Cc3ccncc3)NC(=O)CSC[C@@H](C(=O)N[C@@H](C)C(N)=O)NC(=O)[C@H]([C@@H](C)O)NC(=O)[C@H](C(C)C)NC(=O)[C@H](CC3CCCCC3)NC(=O)[C@H](CCN)NC(=O)[C@@H](CC(C)C)NC(=O)[C@H](CCCN)NC(=O)[C@H](C(C)(C)C)NC(=O)[C@H](Cc3ccc(-c4ccccc4)cc3)NC(=O)[C@H](C(C)C)NC2=O)c1 [Compound 1618] | 0.0227
11 | CC[C@@H]1NC(=O)[C@H](Cc2ccc(-c3ccccc3)cc2)NC(=O)[C@H](C(C)C)NC(=O)[C@H](Cc2cccc(C)c2)NC(=O)[C@H](CC(=O)O)NC(=O)[C@H](Cc2ccc(C(=O)O)cc2)NC(=O)[C@H](Cc2ccncc2)NC(=O)CSC[C@@H](C(=O)N[C@@H](C)C(N)=O)NC(=O)[C@H]([C@@H](C)O)NC(=O)[C@H](C(C)C)NC(=O)[C@H](CC2CCCCC2)NC(=O)[C@H](CCN)NC(=O)[C@@H](CC(C)C)NC(=O)[C@H](CCCN)NC1=O [Compound 1619] | 0.0146
12 | CC[C@@H](C)[C@@H]1NC(=O)[C@H](Cc2ccc(-c3ccccc3)cc2)NC(=O)[C@H](C(C)C)NC(=O)[C@H](Cc2cccc(C)c2)NC(=O)[C@H](CC(=O)O)NC(=O)[C@H](Cc2ccc(C(=O)O)cc2)NC(=O)[C@H](Cc2ccncc2)NC(=O)CSC[C@@H](C(=O)N[C@@H](C)C(N)=O)NC(=O)[C@H]([C@@H](C)O)NC(=O)[C@H](C(C)C)NC(=O)[C@H](CC2CCCCC2)NC(=O)[C@H](CCN)NC(=O)[C@@H](CC(C)C)NC(=O)[C@H](CCCN)NC1=O [Compound 1620] | 0.005
13 | Cc1cccc(C[C@@H]2NC(=O)[C@H](CC(=O)O)NC(=O)[C@H](Cc3ccc(C(=O)O)cc3)NC(=O)[C@H](Cc3ccncc3)NC(=O)CSC[C@@H](C(=O)N[C@@H](C)C(N)=O)NC(=O)[C@H]([C@@H](C)O)NC(=O)[C@H](C(C)C)NC(=O)[C@H](CC3CCCCC3)NC(=O)[C@H](CCN)NC(=O)[C@@H](CC(C)C)NC(=O)[C@H](CCCN)NC(=O)[C@H](CC3CCCCC3)NC(=O)[C@H](Cc3ccc(-c4ccccc4)cc3)NC(=O)[C@H](C(C)C)NC2=O)c1 [Compound 1621] | 0.0367
14 | CCCC[C@@H]1NC(=O)[C@H](Cc2ccc(-c3ccccc3)cc2)NC(=O)[C@H](C(C)C)NC(=O)[C@H](Cc2c[nH]c3ccccc23)NC(=O)[C@H](CC(=O)O)NC(=O)[C@H](Cc2ccc(C(=O)O)cc2)NC(=O)[C@H](Cc2ccncc2)NC(=O)CSC[C@@H](C(=O)N[C@@H](C)C(N)=O)NC(=O)[C@H]([C@@H](C)O)NC(=O)[C@H](C(C)C)NC(=O)[C@H](CC2CCCCC2)NC(=O)[C@H](Cc2cnc[nH]2)NC(=O)[C@@H](CC(C)C)NC(=O)[C@H](CCCN)NC1=O [Compound 1622] | 0.036
15 | CCC[C@@H]1NC(=O)[C@H](Cc2ccc(-c3ccccc3)cc2)NC(=O)[C@H](C(C)C)NC(=O)[C@H](Cc2c[nH]c3ccccc23)NC(=O)[C@H](CC(=O)O)NC(=O)[C@H](Cc2ccc(C(=O)O)cc2)NC(=O)[C@H](Cc2ccncc2)NC(=O)CSC[C@@H](C(=O)N[C@@H](C)C(N)=O)NC(=O)[C@H]([C@@H](C)O)NC(=O)[C@H](C(C)C)NC(=O)[C@H](CC2CCCCC2)NC(=O)[C@H](Cc2cnc[nH]2)NC(=O)[C@@H](CC(C)C)NC(=O)[C@H](CCCN)NC1=O [Compound 1623] | 0.027
16 | CC[C@@H](C)[C@@H]1NC(=O)[C@H](Cc2ccc(-c3ccccc3)cc2)NC(=O)[C@H](C(C)C)NC(=O)[C@H](Cc2c[nH]c3ccccc23)NC(=O)[C@H](CC(=O)O)NC(=O)[C@H](Cc2ccc(C(=O)O)cc2)NC(=O)[C@H](Cc2ccncc2)NC(=O)CSC[C@@H](C(=O)N[C@@H](C)C(N)=O)NC(=O)[C@H]([C@@H](C)O)NC(=O)[C@H](C(C)C)NC(=O)[C@H](CC2CCCCC2)NC(=O)[C@H](CCN)NC(=O)[C@@H](CC2CCCCC2)NC(=O)[C@H](CCCN)NC1=O [Compound 1624] ({CH2CO}-[4Pal][Phe(4-COOH)]DWV[Bip][aIle][Orn][dCha][Dab][Cha]VTCA-NH2; thioether N-14) | 0.0269
17 | CC[C@@H](C)[C@@H]1NC(=O)[C@H](Cc2ccc(-c3ccccc3)cc2)NC(=O)[C@H](C(C)C)NC(=O)[C@H](Cc2c[nH]c3ccccc23)NC(=O)[C@H](CC(=O)O)NC(=O)[C@H](Cc2ccc(OCC(=O)O)cc2)NC(=O)[C@H](Cc2ccc(OCC(=O)O)cc2)NC(=O)CSC[C@@H](C(=O)N[C@@H](C)C(N)=O)NC(=O)[C@H]([C@@H](C)O)NC(=O)[C@H](C(C)C)NC(=O)[C@H](CC2CCCCC2)NC(=O)[C@H](CCN)NC(=O)[C@@H](CC2CCCCC2)NC(=O)[C@H](CCCN)NC1=O [Compound 1625] ({CH2CO}-Y(Carboxymethyl)Y(Carboxymethyl)DWV[Bip][aIle][Orn][dCha][Dab][Cha]VTCA-NH2; thioether N-14) | 0.035
